Source: the NIST ThermoML archive (doi:10.1016/j.jct.2008.06.009)

Conditions: Liquid, Bellows volumetry

N [ammonia]
mass density [kg/m3]
Conditions | 450 K | 500 K
30000 kPa | 355.3 | –
40000 kPa | 403.7 | –
50000 kPa | 433.4 | 350.9
60000 kPa | 455.2 | 384.9
70000 kPa | 472.6 | 410.1
80000 kPa | 487.4 | 430.2
90000 kPa | 500.2 | 446.9
100000 kPa | 511.7 | 461.5
120000 kPa | 531.4 | 485.8
140000 kPa | 548.2 | 505.9
160000 kPa | 563.1 | 523.1
180000 kPa | 576.3 | 538.3
200000 kPa | 588.2 | 551.9
